Test results taken from patent publication US20080312271A1, “AZABENZIMIDAZOLYL COMPOUNDS” (Pfizer Inc., priority 2006, published 2008).
Read-outs that look alike come from different tables or passages of the source.

Target: T1, mGluR2 receptor (metabotropic glutamate receptor 2) (Homo sapiens, UniProt Q14416)
T1 construct: expressed in transfected cells
Test: mGluR2 Potentiator Screen, FLIPR, EC10-EC20 glutamate challenge
Format: cell-based
Description: Procedure for mGluR2 Potentiator Screen NLB methods EC10-EC20 Challenge Cell Culture and Plating:
Cells used for this screen are HEK cells stably transfected with the mGluR2 receptor (metabotropic glutamate receptor 2) and the Gα15 G protein. Clones were identified by functional activity (FLIPR). Cells are grown in growth media containing: DMEM High Glucose with Glutamine and Na Pyruvate (GIBCO), 10% (v/v) Heat inactivate FBS (GIBCO), G418 500 ug/ml (from 50 mg/ml stock) (GIBCO) and Blasticidin 3 ug/ml (from 5 mg/ml stock made in H2O) (Invitrogen).
2 days before the assay cell are trypsinized with 0.25% trysin/EDTA (GIBCO), spun down at 1000 rpm for 5 minutes, resuspended in growth media and plated on polystyrene 384 well black wall 1 clear bottom poly-D-lysine coated plates at a density of approximately 18,000 cells/well in a volume of 50 μL per well. One day before the assay the growth media is removed from the plates by flicking, and replaced with media containing DMEM High Glucose without Glutamine and Na Pyruvate (GIBCO) and 10% (v/v) dialyzed FBS (GIBCO). The reason for the removal of glutamine the day before the assay is to minimize the amount of glutamate that will be present during the assay, as endogenous glutarnate released from the cells can reduce the fluorescent response and interfere with the FLIPR screen.
FLIPR Methods and Data Analysis:
On the day of the assay, the FLIPR assay is performed using the following methods.
The pH is adjusted to 7.4 with 1 M NaOH. Prepare a 2 mM (approx.) stock solution of Fluo-4,am (Molecular Probes) dye in DMSO-22 μl DMSO per 50 ug vial (440 μL per 1 mg vial). Make a 1 mM (approx.) flou-4, PA working solution per vial by adding 22 μl of 20% pluronic acid (PA), (Molecular Probes) in DMSO to each 50 ug vial (440 μL per 1 mg vial). Prepare a 250 mM Probenecid (Sigma) stock solution by dissolving 0.71 g into 5 ml 1N NaOH and 5 ml assay buffer (for each liter of assay wash buffer)L Make 4 uM (approx.) dye incubation media by adding […] per 11 ml DMEM high glucose without glutamine (220 ml per 1 mg vial). Add 110 μL probenecid stock per 11 ml (2.5 mM final [concentration]). To the dye media add 3 units/ml of glutamic-pyruvic transaminase (GPT, Sigma) and 3 mM Na Pyruvate. The assay has worked with dye concentrations from 2 uM to 8 uM dye as well. To the assay buffer from drug preparation, add 1.83 mls DMSO and 400 μL 15.8% P104 (from New Leads biology) per liter for final concentrations of 0.18% DMSO and 0.006% P104. To the assay buffer for cell washing, add probenecid in the same manner and concentration that was used for the dye media.
Remove growth media from cell plates by flicking. Add 50 μl/well dye solution. Incubate 1 hour at 37° C. and 5% CO2. Remove dye solution and wash 3 times with assay buffer+probenecid (100 μl probenecid stock per 10 ml buffer), leaving 30 μL/well assay buffer. Wait at least 10-15 minutes. Compounds and agonist challenge additions are performed with the FLIPR. The 1st addition is for test compounds, which are added as 15 μL of 4×[concentration] of potentiator. The second 2nd addition is 15 μL of 4×[concentration] of agonist or challenge. This achieves 1× concentration of all compounds only after 2nd addition. The 1st and 2nd additions are performed separately using the FLIPR, which give 2 different data files. Compounds are pretreated at least 30 minutes before agonist addition,
Results are analyzed by dividing the peak fluorescent value of the FLIPR response by the […] to achieve a ratio response. The ratios are then analyzed by curve fitting programs. […] Maximum values for dose response curves (forced fitting) are derived from standards on the plate.
Compound Preparation and Glutamate Challenge:
Compounds are delivered as 10 mM DMSO stocks or as powders, Powders are solubilized in DMSO at 10 mM (as solubility allows). Compounds are sonicated in a heated water bath (35-40° C.) for at least 20 minutes.

[1] = mGluR2 potentiator screen, FLIPR, EC10-EC20 glutamate challenge
[2] = HEK cells stably transfected with mGluR2 and Gα15, FLIPR (Fluo-4), potentiation of an EC10 to EC20 concentration of glutamate, Table 9

T1 sequence (Q14416 19-872, species assumed): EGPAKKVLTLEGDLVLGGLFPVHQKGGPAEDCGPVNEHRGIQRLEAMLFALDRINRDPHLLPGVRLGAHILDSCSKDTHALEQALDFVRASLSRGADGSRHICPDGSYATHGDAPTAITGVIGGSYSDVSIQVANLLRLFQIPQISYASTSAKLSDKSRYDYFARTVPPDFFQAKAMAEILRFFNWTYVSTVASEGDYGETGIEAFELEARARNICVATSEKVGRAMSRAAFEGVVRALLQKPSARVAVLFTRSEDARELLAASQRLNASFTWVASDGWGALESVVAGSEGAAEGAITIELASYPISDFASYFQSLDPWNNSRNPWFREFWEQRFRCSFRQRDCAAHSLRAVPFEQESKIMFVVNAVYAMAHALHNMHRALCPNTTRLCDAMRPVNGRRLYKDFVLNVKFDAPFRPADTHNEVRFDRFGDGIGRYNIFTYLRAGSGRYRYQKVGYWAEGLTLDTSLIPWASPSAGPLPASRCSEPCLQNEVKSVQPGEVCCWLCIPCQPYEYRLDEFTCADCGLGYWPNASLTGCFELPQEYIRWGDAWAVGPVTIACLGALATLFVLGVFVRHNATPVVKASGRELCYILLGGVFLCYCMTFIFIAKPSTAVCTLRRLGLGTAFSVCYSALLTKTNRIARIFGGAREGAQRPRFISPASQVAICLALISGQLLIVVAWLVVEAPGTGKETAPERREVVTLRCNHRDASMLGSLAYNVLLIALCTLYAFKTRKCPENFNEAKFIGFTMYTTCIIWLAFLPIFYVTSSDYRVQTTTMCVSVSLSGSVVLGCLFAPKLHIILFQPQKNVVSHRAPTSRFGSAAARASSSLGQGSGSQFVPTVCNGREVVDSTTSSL

EC50 [nM] | Structure (SMILES) | also measured
 | Cc1cc(C2CCN(Cc3nc4cnccc4n3C)CC2)ccc1C(F)(F)F [compound 276] | EC50 [1]: 88.5 nM
33.4 | C[C@@H]1CN(Cc2nc3ncccc3n2C)CC[C@@H]1c1ccc(C(F)(F)F)cc1 (single isomer, unassigned) [compound 118] | 
782 | Cn1c(CN2CCC(c3cc(F)ccc3F)CC2)nc2ncccc21 [compound 74] | 
 | CC(C)Oc1ccc(C2CCN(Cc3nc4ncccc4n3C)CC2)c(F)c1 [compound 262] | EC50 [1]: 127 nM
1540 | COc1ccccc1C1CCN(Cc2nc3ncccc3n2C)CC1 [compound 51] | 
47.1 | C[C@@H]1CN(Cc2nc3nccc4c3n2CCC4)CC[C@@H]1c1ccc(F)cc1F (relative stereo) [Example 127, 2-{[Cis-4-(2,4-difluorophenyl)-3-methylpiperidin-1-yl]methyl}-5,6-dihydro-4H-imidazo[4,5,1-ij]-1,7-naphthyridine] | EC50 [2]: 47.1 nM
349 | COc1ccccc1C1CCN(Cc2nc3cccnc3n2C)CC1C (centres unmarked) [compound 59] | 
429 | C[C@@H]1CN(Cc2nc3ncccc3n2C)CC[C@@H]1c1ccc(OC(F)F)cc1 (relative stereo) [compound 177] | 
214 | COc1ccc([C@H]2CCN(Cc3nc4ncccc4n3C)C[C@H]2C)c(C(F)(F)F)c1 (relative stereo) [compound 173] | 
 | COc1ccc(C2CCN(Cc3nc4ncccc4n3C)CC2)c(C(F)(F)F)c1 [compound 271] | EC50 [1]: 494 nM
2050 | C[C@@H]1CN(Cc2nc3cnccc3n2C)CC[C@@H]1c1ccc(Cl)cc1F (single isomer, unassigned) [compound 140] | 
315 | Cn1c(CN2CCC(c3ccc(C(F)(F)F)cc3)C(F)C2)nc2ncccc21 (centres unmarked) [compound 100] | 
118 | C[C@@H]1CN(Cc2nc3ncccc3n2C)CC[C@@H]1c1ccc(F)cc1F (relative stereo) [compound 124] | 
 | C[C@@H]1CN(Cc2nc3cnccc3n2C)CC[C@@H]1c1ccc(OC(F)F)cc1Cl (single isomer, unassigned) [compound 247] | EC50 [1]: > 1410 nM
207 | C[C@@H]1CN(Cc2nc3cnccc3n2C)CC[C@@H]1c1ccc(C(F)(F)F)cc1C(F)(F)F (relative stereo) [compound 150] | 
2270 | CCOc1ccc(C2CCN(Cc3nc4ncccc4n3C)CC2)cc1 [compound 98] | 
381 | C[C@@H]1CN(Cc2nc3ncccc3n2C)CC[C@@H]1c1cc(F)c(F)cc1F (relative stereo) [compound 179] | 
> 1190 | CC(C)Oc1ccc([C@H]2CCN(Cc3nc4cnccc4n3C)C[C@H]2C)c(F)c1 (single isomer, unassigned) [compound 220] | 
 | Cn1c(CN2CCC(c3ccc(OC(F)(F)F)cc3)CC2)nc2cnccc21 [compound 237] | EC50 [1]: 160 nM
43.6 | C[C@@H]1CN(Cc2nc3ncccc3n2C)CC[C@@H]1c1ccc(OC(F)F)cc1Cl (relative stereo) [compound 203] | 
1450 | COc1ccccc1C1CCN(Cc2nc3cnccc3n2C)CC1 [compound 46] | 
128 | C[C@@H]1CN(Cc2nc3ncccc3n2C)CC[C@@H]1c1ccc(F)c(C(F)(F)F)c1 (relative stereo) [compound 197] | 
 | Cc1cc(C2CCN(Cc3nc4ncccc4n3C)CC2)ccc1C(F)(F)F [compound 277] | EC50 [1]: 60.5 nM
> 603 | CC(C)Oc1ccc([C@H]2CCN(Cc3nc4ncccc4n3C)C[C@H]2C)c(Cl)c1 (single isomer, unassigned) [compound 222] | 
 | Cc1cc(C(F)(F)F)ccc1[C@H]1CCN(Cc2nc3ncccc3n2C)C[C@H]1C (relative stereo) [compound 239] | EC50 [1]: 88 nM
< 5.43 | COc1cc(C(F)(F)F)ccc1C1CCN(Cc2nc3nccc4c3n2CCC4)CC1 [Example 135, 2-({4-[2-methoxy-4-(trifluoromethyl)phenyl]-piperidin-1-yl}methyl)-5,6-dihydro-4H-imidazo[4,5,1-ij]-1,7-naphthyridine] | EC50 [2]: < 5.43 nM

EC50 [nM] | Structure (SMILES) | also measured
410 | CCCOc1ccc(Cl)cc1C1CCN(Cc2nc3cccnc3n2C)CC1 [compound 40] | 
95 | C[C@@H]1CN(Cc2nc3cnccc3n2C)CC[C@@H]1c1cc(F)c(F)cc1F (single isomer, unassigned) [compound 225] | 
190 | Cn1c(CN2CCC(c3ccc(Cl)c(F)c3)CC2)nc2ncccc21 [compound 106] | 
287 | CC(C)Oc1ccc([C@H]2CCN(Cc3nc4cnccc4n3C)C[C@H]2C)c(C(F)(F)F)c1 (relative stereo) [compound 216] | 
277 | C[C@@H]1CN(Cc2nc3ncccc3n2C)CC[C@@H]1c1ccc(OC(F)(F)F)cc1 (relative stereo) [compound 157] | 
 | Cn1c(CN2CCC(c3c(F)cccc3C(F)(F)F)CC2)nc2ncccc21 [compound 229] | EC50 [1]: 212 nM
209 | C[C@@H]1CN(Cc2nc3cnccc3n2C)CC[C@@H]1c1ccc(OC(F)(F)F)c(Cl)c1 (relative stereo) [compound 212] | 
168 | Cn1c(CN2CCC(c3ccc(C(F)(F)F)cc3)CC2)nc2cnccc21 [compound 47] | 
47.9 | Cn1c(CN2CCC(c3ccc(C(F)(F)F)cc3)CC2)nc2ncccc21 [compound 52] | 
211 | COc1ccc(C(F)(F)F)cc1C1CCN(Cc2nc3ncccc3n2C)CC1 [compound 55] | 
 | Cc1cc(C(F)(F)F)ccc1C1CCN(Cc2nc3ncccc3n2C)CC1 [compound 243] | EC50 [1]: 51.1 nM
59.4 | COc1cc(OC(F)(F)F)ccc1[C@H]1CCN(Cc2nc3ncccc3n2C)C[C@H]1C (relative stereo) [compound 215] | 
745 | Cn1c(CN2CCC(c3ccc(C(F)(F)F)cc3)C(C)(C)C2)nc2ncccc21 (centres unmarked) [compound 76] | 
243 | Cc1cc(F)ccc1[C@H]1CCN(Cc2nc3cnccc3n2C)C[C@H]1C (relative stereo) [compound 205] | 
28.3 | C[C@@H]1CN(Cc2nc3ncccc3n2C)CC[C@@H]1c1ccc(F)cc1C(F)(F)F (relative stereo) [compound 204] | 
196 | Cn1c(CN2CCC(c3ccc(C(F)(F)F)cc3)CC2)nc2ccncc21 [compound 93] | 
199 | Cn1c(CN2CCC(c3ccc(F)cc3F)CC2)nc2cccnc21 [compound 85] | 
 | COc1cc(C2CCN(Cc3nc4ncccc4n3C)CC2)ccc1C(F)(F)F [compound 279] | EC50 [1]: 289 nM
406 | Cn1c(CN2CCC(c3ccccc3C(F)(F)F)CC2)nc2cccnc21 [compound 50] | 
174 | CC(C)Oc1ccc([C@H]2CCN(Cc3nc4ncccc4n3C)C[C@H]2C)c(Cl)c1 (relative stereo) [compound 169] | 
< 74.3 | Cc1cc(OC(F)(F)F)ccc1[C@H]1CCN(Cc2nc3ncccc3n2C)C[C@H]1C (relative stereo) [compound 164] | 
1170 | CC(C)Oc1cc(F)ccc1[C@H]1CCN(Cc2nc3cnccc3n2C)C[C@H]1C (relative stereo) [compound 192] | 
 | CC(C)Oc1ccc(C2CCN(Cc3nc4cnccc4n3C)CC2)c(Cl)c1 [compound 267] | EC50 [1]: 85.5 nM
> 129 | C[C@@H]1CN(Cc2nc3ncccc3n2C)CC[C@@H]1c1ccc(OC(F)F)cc1 (single isomer, unassigned) [compound 223] | 
56 | C[C@@H]1CN(Cc2nc3cnccc3n2C)CC[C@@H]1c1ccc(OC(F)(F)F)cc1F (single isomer, unassigned) [compound 196] | 
